This is an account of results in patent publication US20050004029A1, “Methods and compositions for treating vascular leak using hepatocyte growth factor” (priority 2001, published 2005).

In one assay the test system is PKCα. As to the kind of experiment: PKCα activation (phospho-PKC immunoreactivity, membrane translocation). In kind it is cell-based, human. The conditions noted are these: after HGF. The method, then: Endothelial cell monolayers grown to confluence in 12-well plates and challenged with HGF were lysed with 100 μl of 2×SDS sample buffer, and cell lysates were transferred into microcentrifuge tubes and boiled for 5 min. After a brief spin, proteins from 10 μl cell lysates were separated on 12% SDS-PAGE and transferred to nitrocellulose (Schleicher & Schuell, Keene, N.H.) (30V, 18 h). After blocking with PBST (PBS with 0.1% Tween 20) containing 5% non-fat milk for 1 hr, nitrocellulose blots were reacted with primary antibodies diluted in PBST containing 5% BSA for 1 hr, washed with PBST (3×10 min), incubated with peroxidase-conjugated secondary antibodies (goat anti-rabbit IgG, 1:10,000 dilution, Sigma; or goat anti-mouse IgG, 1:10,000 dilution, Bio-Rad Labs, Richmond, Calif.) diluted in PBST with 5% non-fat milk for 1 hr and again washed with PBST (3×10 min). Finally, immunoreactive proteins were detected using ECL. The relative intensities of the protein bands were quantified by scanning densitometry.
Endothelial cells were fractionated into cytosolic, membrane, and nuclear/cytoskeleton fractions as described in Borbiev, T. et al. (2001) Am. J. Physiol. Lung Cell. Mol. Physiol. 280:L983-L990. […]

For assay [1], the system named is Bovine Pulmonary Artery Endothelium. As to the kind of experiment: Transendothelial electrical resistance (TER) across bovine pulmonary artery endothelium. In kind it is cell-based. The conditions noted are these: VEGF 100 ng/ml, Sph 1-P 1 μM, HGF 20 ng/ml. The method, then: Bovine pulmonary artery endothelial cells were purchased from the American Type Culture Collection (ATCC®, Rockville, Md.) and utilized at passage 19-24. Cells were maintained in Medium 199 (Life Technologies, Rockville, Md.) supplemented with 20% (v/v) colostrum-free bovine serum (CFBS) (Irvine Scientific, Santa Ana, Calif.), 15 μg/ml endothelial cell growth supplement (Upstate Biotechnology, Lake Placid, N.Y.), 1% antibiotic and antimycotic, and 0.1 mM non-essential amino acids (Life Technologies). Human pulmonary artery endothelial cells were purchased from Clonetics (Walkersville, Md.), cultured in EBM-2 complete medium (Clonetics) and utilized at passage 5-10. Human alveolar epithelial cells (A549) were purchased from ATCC® and cultured in the same medium as the bovine endothelial cells, except that the endothelial cell growth supplement was omitted. All cells were maintained at 37° C. in a humidified atmosphere of 5% CO2 and 95% air.
Electrical resistance of EC monolayers was measured using electrical cell impedance sensor system (Applied Biophysics Inc., Troy, N.Y.) as described in Garcia, J. G. N. et al. (2000) J. Appl. Physiol. 89:2333-2343. Cells grown on gold microelectrodes (10^−3 cm^2) in polycarbonate wells act as insulating particles, and the resistance across the monolayers (transendothelial electrical resistance, or TER) is measured in real time. As cells adhere on the microelectrode and intercellular cell contacts are formed or in response to agents which increase junctional integrity, the TER increases (Garcia, J. G. N. et al. (2001) J. Clin. Invest. 108:689-711). In contrast, cell retraction, rounding, or loss of adhesion is reflected by decreases in TER (Garcia, J. G. N. et al. (2000) J. Appl. Physiol. 89:2333-2343). These measurements provide a highly sensitive biophysical assay that indicates the state of cell shape, focal adhesion, and endothelial barrier function (Giaever, I. and Keese, C. R. (1993) Nature 366:591-592; Tiruppathi, C. et al. (1992) Proc. Natl. Acad. Sci. USA 89:7919-7923). All electrical resistance data are presented as normalized values. Briefly, current was applied across the electrodes by a 4000 Hz AC voltage source with an amplitude of 1 V in series with a 1 MΩ resistance to approximate a constant current source (−1 μA). The small gold electrode and the larger counter electrode (1 cm^2) were connected to a phase-sensitive lock-in amplifier (5301A; EG&G Instruments Corp, Princeton, N.J.) with a built in differential preamplifier (5316A; EG&G Instruments Corp.). The in-phase and out-of-phase voltages between the electrodes were monitored in real time with the lock-in amplifier and converted to scalar measurements of transendothelial impedance, of which resistance was the primary focus. […] For some experiments, total TER was vectorially resolved into components reflecting resistance to current flow beneath the cell layer (α) and resistance to current flow between adjacent cells (Rb) as described in Garcia et al. (2000) supra utilizing the method of Giaiver and Keese which models the endothelial monolayer mathematically (Giaever, I. and Keese, C. R. (1993) Nature 366:591-592). Thus, changes in α reflect alterations in the net state of cell-matrix adhesion, whereas changes in Rb reflect alterations in the integrity of cell-cell adhesion. TER values from each microelectrode were pooled at discrete time points and plotted versus time as the mean±standard error of the mean (Garcia et al. (2000) supra).

Where [2] appears, read: vs vehicle control, ±SEM, thrombin 100 μM.

As for “HGF: heparin-binding glycoprotein, multifunctional cytokine, ligand of c-Met; purchased from R&D Systems”, in the assay on PKCα, the “time at which PKCα activation is detectable (phospho-PKC immunoreactivity)” value was found to be 15 min and the “time of PKCα translocation to the membrane fraction” value amounted to 5 min. Further, the “TER response in words” value in assay [1] (thrombin, 10-60 min) was “brisk and sustained increase in TER”. Also, in assay [1] (setting [2]), the “changes in TER 30 min” value was “+35 ± 5%” and the “changes in TER 60 min” value is recorded as “+35 ± 4%”. For the same substance, the “changes in TER 10 min” value in assay [1] (vs vehicle control, ±SEM, thrombin 100 μM, (+) increased, (−) decreased) is “+25 ± 3%”.
